Laboratory results reported in PubChem BioAssay (NCI).
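Test compounds were applied to cells in 96-well plates for 48 hours at 5 doses. GI50 = concentration required for 50% inhibition of growth. At the TGI there is no net growth.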

Key:
Assay in all cases: DTP human tumour cell line panel, 48 h
CAKI-1 renal = system: CAKI-1 renal
HCC-2998 colon = system: HCC-2998 colon
SF-539 CNS = system: SF-539 CNS
OVCAR-4 ovarian = system: OVCAR-4 ovarian
HT29 colon = system: HT29 colon
SK-OV-3 ovarian = system: SK-OV-3 ovarian
786-0 renal = system: 786-0 renal
HCT-15 colon = system: HCT-15 colon
A498 renal = system: A498 renal
SR leukemia = system: SR leukemia

Row | SMILES | TGI (CAKI-1 renal) [µM] | TGI (HCC-2998 colon) [µM] | TGI (SF-539 CNS) [µM] | TGI (OVCAR-4 ovarian) [µM] | TGI (HT29 colon) [µM] | TGI (SK-OV-3 ovarian) [µM] | TGI (786-0 renal) [µM] | TGI (HCT-15 colon) [µM] | TGI (A498 renal) [µM] | GI50 (HCC-2998 colon) [µM] | GI50 (SF-539 CNS) [µM] | GI50 (OVCAR-4 ovarian) [µM] | GI50 (SR leukemia) [µM] | TGI (SR leukemia) [µM] | GI50 (HT29 colon) [µM] | GI50 (786-0 renal) [µM] | GI50 (CAKI-1 renal) [µM] | GI50 (SK-OV-3 ovarian) [µM] | GI50 (HCT-15 colon) [µM] | GI50 (A498 renal) [µM]
1 | CN1CCc2c1nc(-c1cccnc1)c1c2N(C)CC1 | > 100 | > 100 | > 100 | > 100 | > 100 | > 100 | > 100 | > 100 | > 100 | – | – | – | – | – | – | – | – | – | – | –
2 | O=C(COc1ccc(Cl)cc1)N1CCN(C(=O)COc2ccc(Cl)cc2)c2ccccc21 | – | > 100 | > 100 | – | > 100 | > 100 | > 100 | – | > 100 | – | – | – | – | – | – | – | – | – | – | –
3 | Nc1cc2cccc[n+]2c2cccc(Cl)c12 | – | 32.4 | 71.2 | 72.8 | – | – | – | – | – | 11.4 | 23 | 17.1 | 5.58 | 51.2 | 56.2 | 22.1 | – | – | – | –
4 | CCC1C(=O)OCc2c1cc1n(c2=O)C(CC)c2c-1nc1ccccc1c2Cl (centres undefined) | > 100 | – | 41.1 | > 100 | 77.1 | 89 | 33.9 | > 100 | 58.1 | – | – | – | – | – | – | – | – | – | – | –
5 | CC(=O)Nc1ccc(C(=O)N2N=C(C)/C(=C/c3cccc([N+](=O)[O-])c3)C2=O)cc1 | > 100 | > 100 | > 100 | > 100 | > 100 | – | > 100 | – | – | – | – | – | – | > 100 | – | – | – | – | – | –
6 | NCCC(=O)NC(Cc1cnc[nH]1)C(=O)O (centres undefined) | > 100 | > 100 | > 100 | > 100 | > 100 | – | > 100 | > 100 | – | – | – | – | – | – | – | – | – | – | – | –
7 | Cc1ccc(N=C2SC(c3ccc(C)cc3)(c3ccc(C)cc3)c3ccccc32)cc1 | > 100 | > 100 | > 100 | > 100 | > 100 | > 100 | > 100 | > 100 | > 100 | – | – | – | – | – | – | – | – | – | – | –
8 | Cc1cc(NC(=O)c2cnc(N3CCN(CCOCCOCCOCCOCCC(=O)N[C@H](C(=O)N4C[C@H](O)C[C@H]4C(=O)N[C@@H](C)c4ccc(-c5scnc5C)cc4)C(C)(C)C)CC3)cn2)c2ncccc2c1 | > 100 | 3.25 | 4.68 | 25 | 7.63 | > 100 | > 100 | > 100 | 29 | 1.75 | 2.12 | 4.49 | – | – | 2.54 | 4.61 | 9.33 | 8.5 | 6.39 | 5.06
9 | Cc1ccc(Sc2oc(-c3ccc(C)cc3)nc2[P+](c2ccccc2)(c2ccccc2)c2ccccc2)cc1 | 1.06 | 1.57 | 1.53 | 1.43 | 1.15 | 1.1 | 1.65 | 1.26 | 0.842 | 0.399 | 0.404 | 0.28 | – | – | 0.294 | 0.379 | 0.283 | 0.27 | 0.31 | 0.152
10 | CSCCCNC(=O)c1csc(-c2csc(CCNC(=O)CNC(=O)CNC(=O)CNC(=O)OC(C)(C)C)n2)n1 | > 100 | > 100 | > 100 | > 100 | > 100 | > 100 | > 100 | > 100 | > 100 | – | – | – | – | – | – | – | – | – | – | –
11 | CCN(C(=O)CN1CCN(c2cc3c(cc2F)c(=O)c(C(=O)O)cn3CC)CC1)c1nc(-c2ccccc2)cs1 | > 100 | > 100 | > 100 | > 100 | > 100 | – | > 100 | > 100 | 0.917 | 0.402 | 0.337 | 0.347 | – | – | 0.301 | 0.384 | 0.312 | – | 0.356 | 0.244
12 | COC(=O)/C(C#N)=C1\CCc2ccccc21 | > 100 | > 100 | > 100 | > 100 | > 100 | > 100 | > 100 | > 100 | > 100 | – | – | – | – | – | – | – | – | – | – | –
13 | CCN(CC)CCC(CNc1c(C)cnc2cc(Cl)ccc12)c1ccc(Cl)cc1 (centres undefined) | 16.8 | – | 3.31 | 21.1 | – | 28.9 | 22.6 | – | – | – | 1.63 | 4.17 | 0.0333 | 7.06 | – | 8.53 | 3.51 | 15.1 | – | –
14 | O=C(NCC(=O)N1CCOC1=O)OCc1ccccc1 | – | > 100 | > 100 | > 100 | > 100 | > 100 | > 100 | > 100 | > 100 | – | – | – | – | – | – | – | – | – | – | –
15 | CC1=NN(C(=O)c2ccc(Cl)cc2)C(=O)/C1=C/c1ccc(Cl)cc1 | > 100 | > 100 | > 100 | > 100 | > 100 | > 100 | > 100 | – | > 100 | – | – | – | – | – | – | – | – | – | – | –
